# Target: cIAP1 BIR3 (Homo sapiens (Human), UniProt Q13490)
# Test: cIAP1 BIR3 binding assay (DELFIA), BIR3 domain-SMAC peptide interaction
# Conditions: BIR3 domain 10 nM, SMAC peptide 10 nM; (S)-isomer (examples 1-34, 38-43) or racemate (examples 35-37); read-out: cIAP1 BIR-3 IC50
# Experimental: XIAP BIR3 and cIAP1 BIR3 Binding Assays (DELFIA)
# Peptide […]-Lys(Biotin), representing the N-terminus of mature human SMAC(SMAC peptide), was used as interaction partner in the protein-peptide interaction assay.
# BIR3 domains (10 nM) were incubated with SMAC peptide (10 nM) in assay buffer (50 mM Tris, 120 mM NaCl, 0.1% BSA, 1 mM DTT, 0.05% TritonX100) for one hour at room temperature in the presence of inhibitory compounds. The assay mixture was transferred to a strepatvidin coated plate and incubated for one hour at room temperature to allow binding of the biotinylated peptide and associated BIR3 domains to the plate. After several washing steps Eu labeled anti-GST antibody (e.g. Perkin Elmer DELFIA Eu-N1-antiGST AD0250) was added to detect BIR3 domain-SMAC peptide interactions according to Perkin Elmer's instructions. […] Time resolved Europium fluorescence was measured in a Wallac Victor using Standard assay settings.
# DELFIA assay results were plotted against compound concentrations and Software GraphPad Prizm was used to calculate half maximal inhibitory concentrations (IC50 values).
row,IC50 [nM],SMILES
1,325,"CNC(C)C(=O)Nc1cc(-c2ccc(OC)nc2)cc(C#Cc2ccccc2)n1 (stereo not drawn) [Example 31, N-[4-(6-methoxypyridin-3-yl)-6-(2-phenylethynyl)pyridin-2-yl]-2-(methylamino)propanamide]"
2,1,"CNC(C)C(=O)Nc1cc(-c2ncnc3c(C)nn(C)c23)cc(C#Cc2ccc3c(cnn3C)c2)n1 (stereo not drawn) [Example 1, N-(4-{1,3-dimethyl-1H-pyrazolo[4,3-d]pyrimidin-7-yl}-6-[2-(1-methyl-1H-indazol-5-yl)ethynyl]pyridin-2-yl)-2-(methylamino)propanamide]"
3,59,"CNC(C)C(=O)Nc1cc(-c2c(OC)ccc3nc(C)ccc23)cc(C#Cc2ccccc2)n1 (stereo not drawn) [Example 5, N-[4-(6-methoxy-2-methylquinolin-5-yl)-6-(2-phenylethynyl)pyridin-2-yl]-2-(methylamino)propanamide]"
4,1,"CNC(C)C(=O)Nc1cc(-c2ncnc3c(C)nn(C)c23)cc(C#Cc2cc(C)nc3c(F)cccc23)n1 (stereo not drawn) [Example 3, N-(4-{1,3-dimethyl-1H-pyrazolo[4,3-d]pyrimidin-7-yl}-6-[2-(8-fluoro-2-methylquinolin-4-yl)ethynyl]pyridin-2-yl)-2-(methylamino)propanamide]"
5,1,"CNC(C)C(=O)Nc1cc(-c2ncnc3c(C)nn(C)c23)cc(C#Cc2cc(C)nc(C)c2)n1 (stereo not drawn) [Example 39, N-(4-{1,3-dimethyl-1H-pyrazolo[4,3-d]pyrimidin-7-yl}-6-[2-(2,6-dimethyl-pyridin-4-yl)ethynyl]pyridin-2-yl)-2-(methylamino)-propanamide]"
6,352,"CNC(C)C(=O)Nc1cc(-c2ccc(C(F)(F)F)nc2)cc(C#Cc2ccccc2)n1 (stereo not drawn) [Example 30, 2-(methylamino)-N-[6-(2-phenylethynyl)-4-[6-(trifluoromethyl)pyridin-3-yl]pyridin-2-yl]propanamide]"
7,1,"CNC(C)C(=O)Nc1cc(-c2ncnc3c(C)nn(C)c23)cc(C#Cc2ccn3c(C)ncc3c2)n1 (stereo not drawn) [Example 4, N-(4-{1,3-dimethyl-1H-pyrazolo[4,3-d]pyrimidin-7-yl}-6-(2-{3-methylimidazo[1,5-a]pyridin-7-yl}ethynyl)pyridin-2-yl)-2-(methylamino)propanamide]"
8,4010,"CNC(C)C(=O)Nc1cc(-c2ccccc2F)cc(C#Cc2ccccc2)n1 (stereo not drawn) [Example 32, N-[4-(2-fluorophenyl)-6-(2-phenylethynyl)pyridin-2-yl]-2-(methylamino)propanamide]"
9,250,"CNC(C)C(=O)Nc1cc(-c2cccnc2)cc(C#Cc2ccccc2)n1 (stereo not drawn) [Example 34, 2-(methylamino)-N-[6-(2-phenyethynyl)-4-(pyridin-3-yl)pyridin-2-yl]propanamide]"

# — patent US9278978B2, “6-Alkynyl Pyridine” (Boehringer Ingelheim International GmbH, priority 2013, dated 2016)
